Key:
[1] = monoprotic acid or base: log K of the neutral species extrapolated from the linear regression of D on the neutral fraction (from pKa and pH; the paper's eq. for monoprotic IOCs), the slope giving K of the neutral species; replicates column holds the table's 95% confidence limits. PDMS sheets cleaned by Soxhlet with ethyl acetate; batch shaking method with a mixture of all chemicals at several PDMS-mass to water-volume ratios and spiked levels; vials shaken on an orbital shaker at room temperature in the dark, sampled at two equilibration times; PDMS extracts and water quantified by LC-HRMS (Orbitrap); D from the slope of C_PDMS on C_w or their ratio; settings: PDMS (polydimethylsiloxane silicone sheet); phosphate buffer at three target pH values (the paper's methods)
[2] = PDMS sheets cleaned by Soxhlet with ethyl acetate; batch shaking method with a mixture of all chemicals at several PDMS-mass to water-volume ratios and spiked levels; vials shaken on an orbital shaker at room temperature in the dark, sampled at two equilibration times; PDMS extracts and water quantified by LC-HRMS (Orbitrap); D from the slope of C_PDMS on C_w or their ratio; value is the mean over that pH's experiments (individual experiments in the SI's concentrations table), sd is the table's stdev; settings: PDMS (polydimethylsiloxane silicone sheet), phosphate buffer at three target pH values (the paper's methods)

| SMILES | log K PDMS/w (neutral species) [1] | log D PDMS/w (apparent distribution ratio at the stated pH) ([2]; pH 3) | log D PDMS/w (apparent distribution ratio at the stated pH) ([2]; pH 7.4) | log D PDMS/w (apparent distribution ratio at the stated pH) ([2]; pH 11.5) |
| --- | --- | --- | --- | --- |
| CO/C=C(/C(=O)O)c1ccccc1Oc1cc(Oc2ccccc2C#N)ncn1 | 1.355 log units; D and K as the pape | 1.162 log units; D and K as the pape | -0.4633 log units; D and K as the pape | -0.695 log units; D and K as the pape |
| CCc1ccc(CCOc2ccc(CC3SC(=O)NC3=O)cc2)nc1 (stereo not shown) |  | 0.7792 log units; D and K as the pape | 2.087 log units; D and K as the pape | -0.02556 log units; D and K as the pape |
| Clc1cccc(Cl)c1NC1=NCCN1 | 2.618 log units; D and K as the pape | 0.07 log units; D and K as the pape | 1.56 log units; D and K as the pape |  |
| CNC(=O)Oc1cccc2ccccc12 | 1.106 log units; D and K as the pape |  |  |  |
| Cc1ccc2[nH]nnc2c1 | 0.3619 log units; D and K as the pape | 0.336 log units; D and K as the pape | 0.308 log units; D and K as the pape | -0.64 log units; D and K as the pape |
| Clc1ccccc1C(c1ccccc1)(c1ccccc1)n1ccnc1 | 4.471 log units; D and K as the pape | 2.324 log units; D and K as the pape | 4.388 log units; D and K as the pape | 4.335 log units; D and K as the pape |
| CCN(CC)c1ccc2c(C)cc(=O)oc2c1 | 2.913 log units; D and K as the pape | 2.535 log units; D and K as the pape | 2.797 log units; D and K as the pape | 2.809 log units; D and K as the pape |
| Oc1c(Br)cc(Cl)cc1Cc1cc(Cl)cc(Br)c1O |  | 3.724 log units; D and K as the pape | 2.256 log units; D and K as the pape | 0.555 log units; D and K as the pape |
| c1ccc2c(c1)[nH]c1cnccc12 | 2.353 log units; D and K as the pape | 1.471 log units; D and K as the pape | 2.208 log units; D and K as the pape | 2.227 log units; D and K as the pape |
| Clc1ccc(COC(Cn2ccnc2)c2ccc(Cl)cc2Cl)c(Cl)c1 (stereo not shown) | 4.599 log units; D and K as the pape | 2.616 log units; D and K as the pape | 4.581 log units; D and K as the pape | 4.53 log units; D and K as the pape |
| CCc1cccc(C)c1N(C(=O)C(=O)O)C(C)C(=O)O (stereo not shown) |  | 1.878 log units; D and K as the pape | 3.06 log units; D and K as the pape | 3.008 log units; D and K as the pape |
| O=C(Nc1ccc(Cl)c(Cl)c1)c1cc(Cl)cc(Cl)c1O | 3.883 log units; D and K as the pape |  |  |  |
| CCNC(=O)[C@@H](C)OC(=O)Nc1ccccc1 | -0.07551 log units; D and K as the pape | 0.635 log units; D and K as the pape | 0.5527 log units; D and K as the pape | 0.7717 log units; D and K as the pape |
| COCCc1ccc(OCC(O)CNC(C)C)cc1 (stereo not shown) |  | 0.28 log units; D and K as the pape | -0.003333 log units; D and K as the pape |  |

The remaining lines, values ahead:

| log K PDMS/w (neutral species) [1] | log D PDMS/w (apparent distribution ratio at the stated pH) ([2]; pH 3) | log D PDMS/w (apparent distribution ratio at the stated pH) ([2]; pH 7.4) | log D PDMS/w (apparent distribution ratio at the stated pH) ([2]; pH 11.5) | SMILES |
| --- | --- | --- | --- | --- |
| 0.5546 log units; D and K as the pape | 0.4988 log units; D and K as the pape | 0.4322 log units; D and K as the pape | 0.4489 log units; D and K as the pape | CCOC(=O)c1ccc(N)cc1 |
| 1.068 log units; D and K as the pape | 0.8893 log units; D and K as the pape | -0.01 log units; D and K as the pape | -0.67 log units; D and K as the pape | CCCCc1nc(Cl)c(CO)n1Cc1ccc(-c2ccccc2-c2nn[nH]n2)cc1 |
| 3.121 log units; D and K as the pape | 3.077 log units; D and K as the pape | 2.994 log units; D and K as the pape | 2.967 log units; D and K as the pape | CCOC(=O)NCCOc1ccc(Oc2ccccc2)cc1 |
| 0.05461 log units; D and K as the pape | -0.02167 log units; D and K as the pape |  |  | O=C(O)CCC(=O)c1ccc(F)cc1 |
| 3.105 log units; D and K as the pape | 2.092 log units; D and K as the pape | 3.079 log units; D and K as the pape | 3.04 log units; D and K as the pape | c1ccc2sc(NC3CCCCC3)nc2c1 |
|  | -0.855 log units; D and K as the pape | -0.2383 log units; D and K as the pape |  | CC(CCc1ccccc1)NCC(O)c1ccc(O)c(C(N)=O)c1 (stereo not shown) |
| 2.315 log units; D and K as the pape | 2.216 log units; D and K as the pape | 2.266 log units; D and K as the pape | 2.184 log units; D and K as the pape | CCOC(=O)c1ccc(N(C)C)cc1 |
|  | 0.632 log units; D and K as the pape | 0.2933 log units; D and K as the pape |  | N[C@@H](Cc1cc(I)c(Oc2cc(I)c(O)c(I)c2)c(I)c1)C(=O)O |
| 1.311 log units; D and K as the pape | 1.054 log units; D and K as the pape | -0.64 log units; D and K as the pape |  | CC(C)(Oc1ccc(CCNC(=O)c2ccc(Cl)cc2)cc1)C(=O)O |
| 2.458 log units; D and K as the pape | -0.445 log units; D and K as the pape | 2.315 log units; D and K as the pape | 2.443 log units; D and K as the pape | c1ccc2c(c1)[nH]c1ccncc12 |
|  |  | -0.58 log units; D and K as the pape | -0.51 log units; D and K as the pape | Nc1nc2ccccc2[nH]1 |
| 1.867 log units; D and K as the pape |  |  |  | O=C(O)Cc1ccccc1Nc1c(Cl)cccc1Cl |
| 2.899 log units; D and K as the pape | 2.835 log units; D and K as the pape | 2.884 log units; D and K as the pape |  | O=C1Nc2ccc(Cl)cc2C(C#CC2CC2)(C(F)(F)F)O1 (stereo not shown) |
| 2.015 log units; D and K as the pape | 1.914 log units; D and K as the pape | 1.863 log units; D and K as the pape | 1.825 log units; D and K as the pape | CCNc1ccc2c(C)cc(=O)oc2c1 |
| 2.916 log units; D and K as the pape |  |  |  | NC12CC3CC(CC(C3)C1)C2 |
| 1.525 log units; D and K as the pape | 1.476 log units; D and K as the pape | 1.423 log units; D and K as the pape |  | CC(C)C(=O)Nc1ccc([N+](=O)[O-])c(C(F)(F)F)c1 |
| 2.203 log units; D and K as the pape | -0.92 log units; D and K as the pape | 1.409 log units; D and K as the pape | 2.124 log units; D and K as the pape | Cc1nccn1CC1CCc2c(c3ccccc3n2C)C1=O (stereo not shown) |
|  | 4.46 log units; D and K as the pape | 2.944 log units; D and K as the pape |  | CC(C)(c1cc(Br)c(O)c(Br)c1)c1cc(Br)c(O)c(Br)c1 |
|  | 1.465 log units; D and K as the pape | 1.732 log units; D and K as the pape | 1.506 log units; D and K as the pape | COC(=O)Nc1nc2ccc(C(=O)c3ccccc3)cc2[nH]1 |

From paper PMC10114720
